# From PubChem BioAssay AID2060908 (Molecular Pharmacology Branch, DTP, NCI, 2025)
# Tested on: 186277-243-T-J2-PDC complex spheroids, viability
# Experiment: Anticancer human tumor 186277-243-T-J2-PDC patient-derived colon adenocarcinoma cell line growth inhibition [RAS]
# Settings: for IC50: curve of first compound; for viability, T/C: stronger effect = lower value
# Text: RAS pathway inhibitors in Combinations in Complex Spheroids
# A high-throughput screen of multi-cell type tumor spheroids was designed to identify active combinations of RAS pathway inhibitors and targeted small molecules. Complex spheroids include a stromal component modeled by human endothelial cells (HUVEC) and fibroblasts modeled by human mesenchymal stem cells (MSCs). The concentration ranges selected for each drug and investigational agent were based upon clinically achievable concentrations if the clinical Cmax of the agent was known.
# Compounds. The drugs and investigational agents: abemaciclib (NSC768073), cobimetinib (NSC768068), divarasib (GDC6063, NSC841802), docetaxel (NSC628503), GDC-1971 (RLY-1971, NSC841576), gemcitabine (NSC613327), inavolisib (NSC800729), ipatasertib (NSC767898), KB-0742 (NSC834161), MRTX-1133 (NSC836407), osimertinib (NSC779217), RMC-4630 (NSC839698), RMC-6236 (NSC851965), RMC-6291 (NSC852671), Ro-3306 (NSC812927), sapanisertib (NSC764658), SN-38 (NSC673596), staurosporine (NSC755774), SY5609 (NSC837396), and tovorafenib (DAY101, NSC766906), were obtained from the National Cancer Institute (NCI) Developmental Therapeutics Program Chemical Repository. The FDA-approved anticancer drug set is available from the NCI Developmental Therapeutics Program. […] The stock solutions were prepared in dimethyl sulfoxide (DMSO, Sigma-Aldrich, St. Louis, MO, cat. D2650) at 800-fold the tested concentration and stored at -70 degrees C prior to their use. All drugs and investigational agents were tested over a range starting from a high concentration at or near the clinical Cmax and decreasing in half-log increments. If the clinical Cmax for an agent had not been determined, the highest concentration tested was 10 microM.
# Cell Culture. All cells were maintained in an incubator at 37 degrees C and 5% CO2 with 95% humidity. The PDC lines were cultured according to standard operating procedures established by the NCI PDMR. All PDCs were thawed and cultured in Matrigel-coated flasks prepared with a working solution of 1X Ham's F-12 nutrient mix, without supplementation (Invitrogen, Waltham, MA, cat. 11765054), 100 U/mL penicillin-streptomycin (Invitrogen, cat. 15140122), and 2.5% Matrigel (Corning Inc., Corning, NY, cat. 354248) for the first three passages. The 362531-283-R-J2-PDC and 782815-120-R-J1-PDC lines were cultured in 6C/Colon 1B media, which includes advanced DMEM/F-12 (Thermo Fisher Scientific, cat. 12634028), 10 mM HEPES (Thermo Fisher Scientific, cat. 15630080), 1X GlutaMAX supplement (Thermo Fisher Scientific, cat. 35050061), 0.1 mg/mL primocin (InvivoGen, San Diego, CA, cat. ant-pm-2), 10% defined fetal bovine serum, heat inactivated (HyClone Laboratories Inc., Logan, UT, cat. SH30070.03HI), 50% L-WRN conditioned media (ATCC, cat. CRL-3276), 1.25 mM N-Acetyl-L-cysteine (Sigma-Aldrich, cat. A9165), 10 mM nicotinamide (Sigma-Aldrich, cat. N0636), 1X B-27 supplement (Thermo Fisher Scientific, cat. 17504044), 1X N-2 supplement (Thermo Fisher Scientific, cat. 17502048), 50 ng/mL human EGF (Thermo Fisher Scientific, cat. PHG0311), and 10 microM Y-27632 dihydrochloride (Tocris Bioscience, cat. 1254). The K12877-001-R-J1-PDC line was cultured in 6I media, which includes all 6C/Colon 1B media plus 10 ng/mL human FGF-10 (PeproTech, cat. 100-26), 1 ng/mL human FGF-2 (PeproTech, cat. 100-18B), 1 µM prostaglandin E2 (Tocris Bioscience, cat. 2296), […] hydrocortisone (Sigma-Aldrich, cat. H4001), and […] bovine insulin (Sigma-Aldrich, cat. I6634). The K86415-001-R-J1-PDC line was cultured in 6D media, which includes all 6C/Colon 1B media components minus the L-WRN conditioned media. The 485176-168-R4-J1-PDC was cultured in PANC media, which includes all 6C/Colon 1B media plus 100 ng/mL human FGF-10 (PeproTech, cat. 100-26), 500 nM SB-431542 (Selleckchem, cat. S1067), and 10 nM gastrin (Tocris Bioscience, cat. 3006). […]
# [1] = second compound 0.0316 µM, first compound 0.0316 µM
# [2] = second compound 0.0316 µM, first compound 0.1 µM
# [3] = second compound 0.1 µM, first compound 0.0316 µM
# [4] = second compound 0.1 µM, first compound 0.1 µM
# [5] = second compound 0.316 µM, first compound 0.0316 µM
# [6] = second compound 0.316 µM, first compound 0.1 µM
# [7] = second compound 1 µM, first compound 0.0316 µM
# [8] = second compound 1 µM, first compound 0.1 µM
# [9] = second compound 3.16 µM, first compound 0.0316 µM
# [10] = second compound 3.16 µM, first compound 0.1 µM
# [11] = second compound 10 µM, first compound 0.0316 µM
# [12] = second compound 10 µM, first compound 0.1 µM
# 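Further: spheroids exposed to compounds for 7 days before viability read.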
smiles,measurement,setting,value
CC(C)n1nc(-c2ccc3oc(N)nc3c2)c2c(N)ncnc21 + C#Cc1c(F)ccc2cc(O)cc(-c3ncc4c(N5CC6CCC(C5)N6)nc(OCC56CCCN5CC(F)C6)nc4c3F)c12,IC50,second compound 0.0316 µM,13.7 nM
same,IC50,second compound 0.1 µM,1.83 nM
same,IC50,second compound 0.316 µM,< 0.316 nM
same,IC50,second compound 1 µM,< 0.316 nM
same,IC50,second compound 3.16 µM,< 0.316 nM
same,IC50,second compound 10 µM,< 0.316 nM
same,"viability, T/C","second compound 0.0316 µM, first compound 0.000316 µM",69.1%
same,"viability, T/C","second compound 0.0316 µM, first compound 0.001 µM",90.7%
same,"viability, T/C","second compound 0.0316 µM, first compound 0.00316 µM",58.6%
same,"viability, T/C","second compound 0.0316 µM, first compound 0.01 µM",51.7%
same,"viability, T/C",[1],44.2%
same,"viability, T/C",[2],25.9%
same,"viability, T/C","second compound 0.1 µM, first compound 0.000316 µM",63.1%
same,"viability, T/C","second compound 0.1 µM, first compound 0.001 µM",53.6%
same,"viability, T/C","second compound 0.1 µM, first compound 0.00316 µM",44.3%
same,"viability, T/C","second compound 0.1 µM, first compound 0.01 µM",37.8%
same,"viability, T/C",[3],19.9%
same,"viability, T/C",[4],7.3%
same,"viability, T/C","second compound 0.316 µM, first compound 0.000316 µM",26%
same,"viability, T/C","second compound 0.316 µM, first compound 0.001 µM",28.6%
same,"viability, T/C","second compound 0.316 µM, first compound 0.00316 µM",13.9%
same,"viability, T/C","second compound 0.316 µM, first compound 0.01 µM",12.1%
same,"viability, T/C",[5],7.95%
same,"viability, T/C",[6],3.56%
same,"viability, T/C","second compound 1 µM, first compound 0.000316 µM",18.2%
same,"viability, T/C","second compound 1 µM, first compound 0.001 µM",14.2%
same,"viability, T/C","second compound 1 µM, first compound 0.00316 µM",13.9%
same,"viability, T/C","second compound 1 µM, first compound 0.01 µM",6.42%
same,"viability, T/C",[7],5.57%
same,"viability, T/C",[8],2.65%
same,"viability, T/C","second compound 3.16 µM, first compound 0.000316 µM",13.7%
same,"viability, T/C","second compound 3.16 µM, first compound 0.001 µM",11.4%
same,"viability, T/C","second compound 3.16 µM, first compound 0.00316 µM",7.28%
same,"viability, T/C","second compound 3.16 µM, first compound 0.01 µM",4.66%
same,"viability, T/C",[9],4.51%
same,"viability, T/C",[10],2.8%
same,"viability, T/C","second compound 10 µM, first compound 0.000316 µM",9.87%
same,"viability, T/C","second compound 10 µM, first compound 0.001 µM",6.96%
same,"viability, T/C","second compound 10 µM, first compound 0.00316 µM",8.48%
same,"viability, T/C","second compound 10 µM, first compound 0.01 µM",4.45%
same,"viability, T/C",[11],3.9%
same,"viability, T/C",[12],1.75%
C[C@@H](NC(=O)c1ncnc(N)c1Cl)c1ncc(C(=O)Nc2cc(C(F)(F)F)c(Cl)cn2)s1 + C#Cc1c(F)ccc2cc(O)cc(-c3ncc4c(N5CC6CCC(C5)N6)nc(OCC56CCCN5CC(F)C6)nc4c3F)c12,IC50,second compound 0.0316 µM,9760 nM
same,IC50,second compound 0.1 µM,4170 nM
same,IC50,second compound 0.316 µM,< 31.6 nM
same,IC50,second compound 1 µM,< 31.6 nM
same,IC50,second compound 3.16 µM,< 31.6 nM
same,IC50,second compound 10 µM,< 31.6 nM
same,"viability, T/C",[1],104%
same,"viability, T/C",[2],98.5%
same,"viability, T/C","second compound 0.0316 µM, first compound 0.316 µM",90.6%
same,"viability, T/C","second compound 0.0316 µM, first compound 1 µM",91.7%
same,"viability, T/C","second compound 0.0316 µM, first compound 3.16 µM",76.1%
same,"viability, T/C","second compound 0.0316 µM, first compound 10 µM",48.8%
same,"viability, T/C",[3],77.2%
same,"viability, T/C",[4],69.5%
same,"viability, T/C","second compound 0.1 µM, first compound 0.316 µM",62.1%
same,"viability, T/C","second compound 0.1 µM, first compound 1 µM",61.3%
same,"viability, T/C","second compound 0.1 µM, first compound 3.16 µM",60.8%
same,"viability, T/C","second compound 0.1 µM, first compound 10 µM",26.7%
same,"viability, T/C",[5],36.3%
same,"viability, T/C",[6],49.8%
same,"viability, T/C","second compound 0.316 µM, first compound 0.316 µM",38.5%
same,"viability, T/C","second compound 0.316 µM, first compound 1 µM",36%
same,"viability, T/C","second compound 0.316 µM, first compound 3.16 µM",23.7%
same,"viability, T/C","second compound 0.316 µM, first compound 10 µM",14.4%
same,"viability, T/C",[7],20.9%
same,"viability, T/C",[8],23.9%
same,"viability, T/C","second compound 1 µM, first compound 0.316 µM",22.7%
same,"viability, T/C","second compound 1 µM, first compound 1 µM",22.3%
same,"viability, T/C","second compound 1 µM, first compound 3.16 µM",18.8%
same,"viability, T/C","second compound 1 µM, first compound 10 µM",11.1%
same,"viability, T/C",[9],15.4%
same,"viability, T/C",[10],17.6%
same,"viability, T/C","second compound 3.16 µM, first compound 0.316 µM",15.1%
same,"viability, T/C","second compound 3.16 µM, first compound 1 µM",15.4%
same,"viability, T/C","second compound 3.16 µM, first compound 3.16 µM",10.9%
same,"viability, T/C","second compound 3.16 µM, first compound 10 µM",8.51%
same,"viability, T/C",[11],9.89%
same,"viability, T/C",[12],10.8%
same,"viability, T/C","second compound 10 µM, first compound 0.316 µM",14%
same,"viability, T/C","second compound 10 µM, first compound 1 µM",12.8%
same,"viability, T/C","second compound 10 µM, first compound 3.16 µM",8%
same,"viability, T/C","second compound 10 µM, first compound 10 µM",8.5%
